From US20090042863A1, “Therapeutic Agent for Diabetes” (Takeda Pharmaceutical Company Limited, priority 2005, published 2009)
Counter-ions that a name gives are not always drawn.

Columns and labels:
Type in all cases: in vivo
db/db mouse [1] = experiment: Pancreatic insulin content in db/db mice, Experimental Example 3 (pioglitazone, compound B); conditions: male, 6-week-old, powder diet with pioglitazone hydrochloride 0.0075 (w/w)% as pioglitazone and/or compound B 0.03 (w/w)% free form for 26 consecutive days, pancreas isolated at day 28, mean ± SD, n=7
Experimental: (§1) First, the mouse pancreas was homogenated in its 10 times weight of 74% ethanol (containing 0.15 mM hydrochloric acid). The obtained homogenate solution was left standing overnight under the shading conditions at 4° C., and centrifuged at 15000 rpm for 5 min. The obtained supernatant was appropriately diluted with PBS(−) (phosphate-buffered saline) containing 0.1% BSA (bovine serum albumin). The insulin content of the diluted solution was measured by radioimmunoassay (trade name: RAT INSULIN RIA KIT, manufactured by RINCO Research, U.S.A.), and the insulin content per pancreatic tissue weight was calculated. […]
(§2) In the above-mentioned Groups A-D, pancreas was isolated from the mice at day 28 from the start of the powder feed administration, and the pancreatic insulin content was measured.
(§3) The insulin content per pancreatic tissue weight was calculated in the same manner as in Experimental Example 1. […]

db/db mouse [2] = experiment: Pancreatic insulin content in db/db mice, Experimental Example 2 (voglibose, compound A); conditions: male, 6-week-old, powder diet with voglibose 0.001 (w/w)% and/or compound A 0.03 (w/w)% free form for 27 consecutive days, pancreas isolated at day 29, mean ± SD, n=6
Experimental: as §1
In the above-mentioned Groups A-D, pancreas was isolated from the mice at day 29 from the start of the powder feed administration, and the pancreatic insulin content was measured.
as §3

db/db mouse [3] = experiment: Pancreatic insulin content in db/db mice, Experimental Example 4 (pioglitazone, compound C); conditions: male, 6-week-old, powder diet with pioglitazone hydrochloride 0.0075 (w/w)% as pioglitazone and/or compound C 0.1 (w/w)% free form for 26 consecutive days, pancreas isolated at day 28, mean ± SD, n=7
Experimental: as §1, §2, §3

SMILES	Pancreatic insulin content (db/db mouse [1])	Pancreatic insulin content (db/db mouse [2])	Pancreatic insulin content (db/db mouse [3])
Cn1c(=O)cc(N2CCC[C@@H](N)C2)n(Cc2cc(F)ccc2C#N)c1=O.O=C(O)CCC(=O)O [compound B, 2-[[6-[(3R)-3-amino-1-piperidinyl]-3,4-dihydro-3-methyl-2,4-dioxo-1(2H)-pyrimidinyl]methyl]-4-fluorobenzonitrile succinate]	58.1 ± 17.0 ng/mg tissue	–	–
Cn1c(=O)cc(N2CCC[C@@H](N)C2)n(Cc2ccccc2C#N)c1=O.O=C(O)c1ccccc1 [compound A, 2-[[6-[(3R)-3-amino-1-piperidinyl]-3,4-dihydro-3-methyl-2,4-dioxo-1(2H)-pyrimidinyl]methyl]benzonitrile benzoate]	–	92.0 ± 37.0 ng/mg tissue	–
CCc1ccc(CCOc2ccc(CC3SC(=O)NC3=O)cc2)nc1 (stereo not drawn) [pioglitazone, pioglitazone hydrochloride]	74.8 ± 21.5 ng/mg tissue	–	74.8 ± 21.5 ng/mg tissue
N#Cc1ccccc1Cn1c(N2CCC[C@@H](N)C2)ncc(F)c1=O.O=C(O)C(O)C(O)C(=O)O [compound C, 2-[2-(3-(R)-aminopiperidin-1-yl)-5-fluoro-6-oxo-6H-pyrimidin-1-ylmethyl]benzonitrile tartrate]	–	–	57.2 ± 17.8 ng/mg tissue
OCC(CO)N[C@H]1C[C@](O)(CO)[C@@H](O)[C@H](O)[C@H]1O [voglibose]	–	198.1 ± 169.8 ng/mg tissue	–
